The text below walks through data of patent publication US12054498B2, “Heteroaromatic macrocyclic ether chemotherapeutic agents” (Nuvalent, Inc., priority 2020, dated 2024).

pIC50, pKi: −log10 of the molar value.

The target of experiment [1] is T1, ALK-wt (Homo sapiens, UniProt Q9UM73).
T1 construct: purchased Carna 08-518
The experiment in a line: Biochemical kinase assay, ALK-wt kinase domain. The settings on record: apparent inhibitory constant, Morrison equation; ATP 2 mM in substrate solution; read-out: ALK-wt Ki^app. The protocol:
(§1) First, 250 nL of compound dissolved in DMSO (100-fold of the desired concentration) was dispensed into a 384-well plate. A 12.5 μL substrate solution containing ATP (2 mM) and fluorogenic phosphorylation substrate AQT0101 (26 μM for ALK and ROS1, AssayQuant) or AQT0104 (26 μM for TRKA, AssayQuant) in buffer (50 mM HEPES pH 7.5, 0.01% Brij-35, 0.5 mM EGTA, 10 mM MgCl2) was added and mixed thoroughly. Then, a 12.5 μL kinase solution containing ALK-wt (1.5 nM, Carna, 08-518), ALK ALK L1196M/G1202R (3 nM, SignalChem, A19-12NG), ROS1-wt (0.6 nM, Carna, 08-163), ROS1-G2032R (0.5 nM, SignalChem, R14-12BG), or TRKA-wt (1 nM, BPS Bio, 40280) kinase domains in buffer (50 nM HEPES pH 7.5, 0.01% Brij-35, 2% glycerol, 0.4 mg/mL BSA, 0.5 mM EGTA, and 10 mM MgCl2) was added and mixed thoroughly. The plate was sealed and read by SpectraMax Paradigm at λ=485 nm every 2 minutes for 120 minutes at 30° C. Initial rates of reaction (v) were calculated from the change in fluorescence intensity over time during the initial, linear portion of the reaction. Finally, apparent inhibitory constants (Ki^app) were determined from regression of v and I (inhibitor concentration) to Morrison Equation (E=enzyme concentration): […]

Experiment [2] concerns the target T2, ALK L1196M/G1202R (Homo sapiens, UniProt Q9UM73, G1202R/L1196M).
T2 construct: purchased SignalChem A19-12NG
As to the kind of experiment: Biochemical kinase assay, ALK L1196M/G1202R kinase domain. Particulars: apparent inhibitory constant, Morrison equation; ATP 2 mM in substrate solution; read-out: ALK-L1196M-G1202R Ki^app. The protocol:
as §1

Experiment [3] deals with T3, ROS1-wt (Homo sapiens, UniProt P08922).
T3 construct: purchased Carna 08-163
T3 sequence (P08922 1945-2222 limits assumed): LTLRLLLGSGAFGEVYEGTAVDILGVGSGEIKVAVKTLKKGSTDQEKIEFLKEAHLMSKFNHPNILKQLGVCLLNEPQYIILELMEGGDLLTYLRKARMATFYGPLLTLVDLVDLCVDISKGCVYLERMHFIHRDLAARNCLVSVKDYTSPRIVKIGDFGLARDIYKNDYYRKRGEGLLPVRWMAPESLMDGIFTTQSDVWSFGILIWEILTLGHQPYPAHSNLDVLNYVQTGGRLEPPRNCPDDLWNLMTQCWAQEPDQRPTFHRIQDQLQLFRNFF
As to the kind of experiment: Biochemical kinase assay, ROS1-wt kinase domain. Particulars: apparent inhibitory constant, Morrison equation; ATP 2 mM in substrate solution; read-out: ROS1-wt Ki^app. The protocol: as §1, with “Then, a 12.5 μL kinase solution containing ALK-wt (1.5 nM, Carna, 08-518), ALK ALK L1196M/G1202R (3 nM, SignalChem, A19-12NG), ROS1-wt (0.6 nM, Carna, 08-163), ROS1-G2032R (0.5 nM, SignalChem, R14-12BG), or TRKA-wt (1 nM, BPS Bio, 40280) kinase domains in buffer (50 nM HEPES pH 7.5, 0.01% Brij-35, 2% glycerol, 0.4 mg/mL BSA, 0.5 mM EGTA, and 10 mM MgCl2) was added and mixed thoroughly.” left out

The target of experiment [4] is T4, ROS1-G2032R (Homo sapiens, UniProt P08922, G2032R).
T4 construct: purchased SignalChem R14-12BG
T4 sequence (P08922 1945-2222 G2032R limits assumed): as the sequence (P08922 1945-2222 limits assumed) above, with G88R counted along it
As to the kind of experiment: Biochemical kinase assay, ROS1-G2032R kinase domain. Particulars: apparent inhibitory constant, Morrison equation; ATP 2 mM in substrate solution; read-out: ROS1-G2032R Ki^app. The protocol:
as §1, with “Then, a 12.5 μL kinase solution containing ALK-wt (1.5 nM, Carna, 08-518), ALK ALK L1196M/G1202R (3 nM, SignalChem, A19-12NG), ROS1-wt (0.6 nM, Carna, 08-163), ROS1-G2032R (0.5 nM, SignalChem, R14-12BG), or TRKA-wt (1 nM, BPS Bio, 40280) kinase domains in buffer (50 nM HEPES pH 7.5, 0.01% Brij-35, 2% glycerol, 0.4 mg/mL BSA, 0.5 mM EGTA, and 10 mM MgCl2) was added and mixed thoroughly.” left out

Experiment [5] addresses T5, TRKA-wt (Homo sapiens, UniProt P04629).
T5 construct: or TRKA-wt (1 nM, BPS Bio, 40280) kinase domains in buffer; purchased BPS Bio 40280
The experiment in a line: Biochemical kinase assay, TRKA-wt kinase domain. The settings on record: apparent inhibitory constant, Morrison equation; ATP 2 mM in substrate solution; read-out: TRKA-wt Ki^app. The protocol: as §1

Experiment [6] deals with T6, Ba/F3 cells CD74-ROS1 wild-type (wt) (Homo sapiens, UniProt P08922).
T6 construct: fusion of the C-terminus of ROS1 with the N-terminus of various partner proteins; host or cells: Ba/F3 (RIKEN), retroviral pMSCV-puro; the other entry of the earlier key: CD74 (P04233, HLA class II histocompatibility antigen gamma chain)
T6 sequence (P08922 1883-2347 limits assumed): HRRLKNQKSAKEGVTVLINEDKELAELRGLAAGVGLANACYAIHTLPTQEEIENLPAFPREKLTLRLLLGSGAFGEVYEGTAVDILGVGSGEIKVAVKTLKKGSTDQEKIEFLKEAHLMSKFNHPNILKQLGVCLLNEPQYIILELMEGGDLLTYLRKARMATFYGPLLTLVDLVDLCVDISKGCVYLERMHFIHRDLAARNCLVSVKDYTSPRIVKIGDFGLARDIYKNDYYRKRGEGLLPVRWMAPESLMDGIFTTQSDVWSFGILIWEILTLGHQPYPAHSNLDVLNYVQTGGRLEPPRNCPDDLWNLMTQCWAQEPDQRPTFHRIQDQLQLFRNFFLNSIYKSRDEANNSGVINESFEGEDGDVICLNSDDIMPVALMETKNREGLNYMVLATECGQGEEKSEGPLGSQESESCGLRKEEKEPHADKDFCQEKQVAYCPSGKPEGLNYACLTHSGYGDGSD
As to the kind of experiment: Ba/F3 cell proliferation assay, CD74-ROS1 wild-type. Type of experiment: cell-based. Particulars: 72 hours, CellTiter-Glo. The method in brief:
(§2)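 Cells seeded 1 day, then treated with 3-fold compound dilutions for 72 h; viability by CellTiter-Glo luminescence. IC50 from percent inhibition by four-parameter logistic fit.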
For orientation: In ATP-based viability assays light output follows the ATP content of the culture.

For experiment [7], the target named is T7, Ba/F3 cells CD74-ROS1 G2032R (Homo sapiens, UniProt P08922, G2032R).
T7 construct: fusion of the C-terminus of ROS1 with the N-terminus of various partner proteins; host or cells: Ba/F3 (RIKEN), retroviral pMSCV-puro; the other entry of the earlier key: CD74 (P04233, HLA class II histocompatibility antigen gamma chain)
T7 sequence (P08922 1883-2347 G2032R limits assumed): as the sequence (P08922 1883-2347 limits assumed) above, with G150R counted along it
The experiment in a line: Ba/F3 cell proliferation assay, CD74-ROS1 G2032R. Format: cell-based. The settings on record: 72 hours, CellTiter-Glo. A digest of the protocol:
as §2

Experiment [8] has as its target T8, Ba/F3 cells EML4-ALK wt (variant 1) (Homo sapiens, UniProt Q9UM73).
T8 construct: echinoderm microtubule-associated protein-like 4 (EML4) gene and the ALK tyrosine kinase domain; host or cells: Ba/F3 (RIKEN), retroviral pMSCV-puro; the other entry of the earlier key: EML4 (Q9HC35, Echinoderm microtubule-associated protein-like 4)
The experiment in a line: Ba/F3 cell proliferation assay, EML4-ALK wt (variant 1). Type of experiment: cell-based. Particulars: 72 hours, CellTiter-Glo. The method in brief:
(§3)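 Stable fusion-expressing Ba/F3 clones, 1,000 cells/well. Compounds for 72 h, CellTiter-Glo readout; IC50 by 4-parameter logistic regression.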

Experiment [9] concerns the target T9, Ba/F3 cells EML4-ALK L1196M/G1202R (variant 1) (Homo sapiens, UniProt Q9UM73, G1202R/L1196M).
T9 construct: echinoderm microtubule-associated protein-like 4 (EML4) gene and the ALK tyrosine kinase domain; host or cells: Ba/F3 (RIKEN), retroviral pMSCV-puro; the other entry of the earlier key: EML4 (Q9HC35, Echinoderm microtubule-associated protein-like 4)
As to the kind of experiment: Ba/F3 cell proliferation assay, EML4-ALK L1196M/G1202R (variant 1). Format: cell-based. The settings on record: 72 hours, CellTiter-Glo. A digest of the protocol:
as §3

The target of experiment [10] is T10, Ba/F3 cells TPM3-TRKA (Homo sapiens, UniProt P04629).
T10 construct: host or cells: Ba/F3 (RIKEN), retroviral pMSCV-puro; the other entry of the earlier key: TPM3 (P06753, Tropomyosin alpha-3 chain)
T10 sequence (P04629 510-796 limits assumed): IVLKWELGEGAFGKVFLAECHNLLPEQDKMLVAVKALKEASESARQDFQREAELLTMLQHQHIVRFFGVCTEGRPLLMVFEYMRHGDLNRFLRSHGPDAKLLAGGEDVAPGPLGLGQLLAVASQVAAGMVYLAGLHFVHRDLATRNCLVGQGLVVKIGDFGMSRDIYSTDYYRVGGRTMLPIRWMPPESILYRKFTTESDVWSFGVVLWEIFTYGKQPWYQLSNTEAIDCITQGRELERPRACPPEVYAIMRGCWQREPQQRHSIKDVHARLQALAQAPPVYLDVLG
As to the kind of experiment: Ba/F3 cell proliferation assay, TPM3-TRKA. Particulars: 72 hours, CellTiter-Glo, read-out: TPM3-NTRK1-wt IC50. Format: cell-based. A digest of the protocol:
as §3

The test system of experiment [11] is TPM3-NTRK1-wt IC50 / primary target IC50 (e.g. CD74-ROS1-wt). As to the kind of experiment: TRKA selectivity in Ba/F3 cells (TRKA potency divided by primary target potency). Format: cell-based. The settings on record: for TPM3-NTRK1-wt/CD74-ROS1-G2032R selectivity ratio: TRKA potency / CD74-ROS1-G2032R potency; for TPM3-NTRK1-wt/CD74-ROS1-wt selectivity ratio: TRKA potency / CD74-ROS1-wt potency; for TPM3-NTRK1-wt/EML4-ALK-L1196M-G1202R selectivity ratio: TRKA potency / EML4-ALK-L1196M-G1202R potency; for TPM3-NTRK1-wt/EML4-ALK-wt selectivity ratio: TRKA potency / EML4-ALK-wt potency. The protocol: TRKA selectivity was calculated by dividing a compound's TRKA potency by its primary target potency (e.g. TPM3-NTRK1-wt IC50/CD74-ROS1-wt IC50). Compound selectivity can be interpreted by binning ratio values: bin A for very high selectivity, ratio >30-fold; bin B for high selectivity, ratio >10-fold; bin C for moderate selectivity, ratio ≥1; and bin D for low selectivity, ratio <1. […] (nd=not determined).

T5 sequence (P04629 510-781 limits assumed): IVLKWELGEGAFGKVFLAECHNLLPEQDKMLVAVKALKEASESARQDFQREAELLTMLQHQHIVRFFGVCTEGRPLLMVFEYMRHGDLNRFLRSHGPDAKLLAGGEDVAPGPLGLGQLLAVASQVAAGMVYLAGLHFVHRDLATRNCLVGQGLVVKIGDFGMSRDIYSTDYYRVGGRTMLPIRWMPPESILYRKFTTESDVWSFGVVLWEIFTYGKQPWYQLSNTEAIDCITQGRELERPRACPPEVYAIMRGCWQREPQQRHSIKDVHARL
T9 sequence (Q9UM73 with tags, fused parts or gaps L1196M/G1202R): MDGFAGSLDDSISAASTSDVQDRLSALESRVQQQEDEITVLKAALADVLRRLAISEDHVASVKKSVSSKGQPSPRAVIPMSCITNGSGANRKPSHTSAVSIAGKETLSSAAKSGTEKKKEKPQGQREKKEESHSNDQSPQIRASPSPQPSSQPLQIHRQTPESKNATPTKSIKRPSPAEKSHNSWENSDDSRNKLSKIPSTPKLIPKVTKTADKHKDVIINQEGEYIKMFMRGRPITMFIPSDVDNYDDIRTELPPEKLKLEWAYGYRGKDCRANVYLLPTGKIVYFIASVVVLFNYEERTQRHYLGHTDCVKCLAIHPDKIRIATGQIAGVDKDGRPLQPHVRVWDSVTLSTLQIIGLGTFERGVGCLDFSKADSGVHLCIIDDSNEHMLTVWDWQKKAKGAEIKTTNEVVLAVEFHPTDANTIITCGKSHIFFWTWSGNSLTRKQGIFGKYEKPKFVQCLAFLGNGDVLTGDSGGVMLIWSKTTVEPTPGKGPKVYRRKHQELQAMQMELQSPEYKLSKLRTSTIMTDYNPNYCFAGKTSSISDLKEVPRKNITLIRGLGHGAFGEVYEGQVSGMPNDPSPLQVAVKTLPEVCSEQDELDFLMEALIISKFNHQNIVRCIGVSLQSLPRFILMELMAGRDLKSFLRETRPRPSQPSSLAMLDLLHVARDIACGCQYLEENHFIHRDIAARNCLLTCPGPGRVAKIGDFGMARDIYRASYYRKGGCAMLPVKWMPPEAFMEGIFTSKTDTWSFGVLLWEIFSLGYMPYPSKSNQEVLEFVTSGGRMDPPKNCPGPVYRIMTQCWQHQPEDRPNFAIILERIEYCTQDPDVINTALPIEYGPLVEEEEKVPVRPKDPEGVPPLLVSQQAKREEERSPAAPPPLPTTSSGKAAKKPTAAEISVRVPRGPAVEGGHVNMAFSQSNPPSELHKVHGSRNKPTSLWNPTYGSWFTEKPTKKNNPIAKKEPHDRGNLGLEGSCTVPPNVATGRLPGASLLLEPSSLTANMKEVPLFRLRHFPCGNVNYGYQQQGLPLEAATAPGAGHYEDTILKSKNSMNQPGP
T2 sequence (Q9UM73 1116-1392 L1196M/G1202R limits assumed): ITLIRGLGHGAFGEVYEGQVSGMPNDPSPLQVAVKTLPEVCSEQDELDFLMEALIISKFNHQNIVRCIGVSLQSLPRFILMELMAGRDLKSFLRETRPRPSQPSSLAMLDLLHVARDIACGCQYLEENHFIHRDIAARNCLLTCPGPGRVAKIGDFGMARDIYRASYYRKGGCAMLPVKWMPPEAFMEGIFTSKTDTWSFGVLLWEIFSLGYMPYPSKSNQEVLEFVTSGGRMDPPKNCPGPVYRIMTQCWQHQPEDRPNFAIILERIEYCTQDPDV
T1 sequence (Q9UM73 1116-1392 limits assumed): as the sequence (Q9UM73 1116-1392 L1196M/G1202R limits assumed) above, with M81L, R87G counted along it
T8 sequence (Q9UM73 with tags, fused parts or gaps): as the sequence (Q9UM73 with tags, fused parts or gaps L1196M/G1202R) above, with M635L, R641G counted along it

Consider `C[C@H]1Oc2cc(cnc2N)-c2c(cnn2C2CCC2)Cn2ncc(C#N)c2-c2ccc(F)cc21` [Example 10, (19R)-22-amino-3-cyclobutyl-16-fluoro-19-methyl-20-oxa-3,4,8,9,23-pentaazapentacyclo[19.3.1.0^2,^6.0^8,^12.0^13,^18]pentacosa-1(24),2(6),4,9,11,13,15,1 7,21(25),22-decaene-11-carbonitrile], for which the pKi (as a rule, the Ki on a negative log10 scale, so that one unit is a factor of ten) in experiment [1] is > 7.30; in experiment [2] it was > 7.30; in experiment [3] it was > 7.30; in [4], > 7.30; in experiment [5], < 6.30. The pIC50 (usually the IC50 on a negative log10 scale, so that one unit is a factor of ten) in [6] was 7.30 to 10.00; in experiment [7], 7.30 to 10.00; in [8] it was 7.30 to 10.00; in experiment [9], 6.30 to 7.30; in experiment [10], < 6.30. Moreover, the TPM3-NTRK1-wt/CD74-ROS1-G2032R selectivity ratio entry in experiment [11] is “A (bin A for very high selectivity, ratio >30-fold)”. In addition, in [11], the TPM3-NTRK1-wt/CD74-ROS1-wt selectivity ratio result was “A (bin A for very high selectivity, ratio >30-fold)”. In addition, the TPM3-NTRK1-wt/EML4-ALK-L1196M-G1202R selectivity ratio entry in experiment [11] is “B (bin B for high selectivity, ratio >10-fold)”. In addition, the TPM3-NTRK1-wt/EML4-ALK-wt selectivity ratio result in experiment [11] is on record as “A (bin A for very high selectivity, ratio >30-fold)”.

On to `C[C@H]1Oc2cc(cnc2N)-c2c(cnn2C(F)F)Cn2nccc2-c2ccc(F)cc21` [Example 12, (19R)-3-(difluoromethyl)-16-fluoro-19-methyl-20-oxa-3,4,8,9,23-pentaazapentacyclo[19.3.1.0^2,^6.0^8,^12.0^13,^18]pentacosa-1(24),2(6),4,9,11,13,15,17,21(25),22-decaen-22-amine], for which the negative-log Ki (pKi) was > 7.30 in experiment [1]; 6.30 to 7.30 in experiment [2]; > 7.30 in [3]; 6.30 to 7.30 in experiment [4]; < 6.30 in experiment [5]. Moreover, the pIC50 in [6] was 7.30 to 10.00; in experiment [7], 7.30 to 10.00; in [8] it was 6.30 to 7.30; in [9] it was < 6.30; in experiment [10], < 6.30. The TPM3-NTRK1-wt/CD74-ROS1-G2032R selectivity ratio entry in [11] is “A (bin A for very high selectivity, ratio >30-fold)”. For the same compound, the TPM3-NTRK1-wt/CD74-ROS1-wt selectivity ratio result in experiment [11] is given as “A (bin A for very high selectivity, ratio >30-fold)”. Further, the TPM3-NTRK1-wt/EML4-ALK-L1196M-G1202R selectivity ratio entry in experiment [11] was “C (bin C for moderate selectivity, ratio ≥1)”. In addition, in experiment [11], the TPM3-NTRK1-wt/EML4-ALK-wt selectivity ratio entry was “A (bin A for very high selectivity, ratio >30-fold)”.

Take `C[C@H]1Oc2cc(cnc2N)-c2c(cnn2C2CCC2)Cc2nn(C)nc2-c2ccc(F)cc21` [Example 13, (19R)-3-cyclobutyl-16-fluoro-10,19-dimethyl-20-oxa-3,4,9,10,11,23-hexaazapentacyclo[19.3.1.0^2,^6.0^8,^12.0^13,^18]pentacosa-1(24),2(6),4,8,11,13,15,17,21(25),22-decaen-22-amine]: the pKi in [1] was > 7.30; in [2], > 7.30; in [3] it was > 7.30; in experiment [4], > 7.30; in experiment [5] it was < 6.30. Also, the negative-log IC50 (pIC50) was 7.30 to 10.00 in experiment [6]; 7.30 to 10.00 in experiment [7]; 7.30 to 10.00 in [8]; 7.30 to 10.00 in [9]; < 6.30 in experiment [10]. The TPM3-NTRK1-wt/CD74-ROS1-G2032R selectivity ratio entry in experiment [11] was “A (bin A for very high selectivity, ratio >30-fold)”. Besides, the TPM3-NTRK1-wt/CD74-ROS1-wt selectivity ratio result in [11] was “A (bin A for very high selectivity, ratio >30-fold)”. Also, the TPM3-NTRK1-wt/EML4-ALK-L1196M-G1202R selectivity ratio result in experiment [11] was “A (bin A for very high selectivity, ratio >30-fold)”. In addition, in experiment [11], the TPM3-NTRK1-wt/EML4-ALK-wt selectivity ratio entry is recorded as “A (bin A for very high selectivity, ratio >30-fold)”.
